Earlier results in patent US20140100282A1, “INTRANASAL ADMINISTRATION OF PHARMACEUTICAL AGENTS FOR TREATMENT OF NEUROLOGICAL DISEASES” (priority 2012, published 2014).
Like-named read-outs stand apart in the source and are kept apart here.

Key:
[1] = mouse, intravenous, autoradiography after 30 minutes
[2] = test system: protein phosphatase 2A (PP2A); conditions: murine primary neurons from wild-type and human tau transgenic mice
tau = conditions: transgenic mice
amyloid beta = conditions: monotherapy at doses that lead to activation of AMPK
[3] = animal and humans
[4] = intranasal

NCCc1c[nH]cn1 [histamine]
penetration into the brain or spinal cord through the BBB [1]: zero penetration

CN(C)C(=N)NC(=N)N [metformin]
PP2A activity [2]: induces PP2A activity
phosphorylation of Ser202 (tau; 100 nM): decreased phosphorylation of Ser202 slightly
phosphorylation of Ser202 (tau; 10 μM): significantly reduced
generation of amyloid beta species (amyloid beta): significantly increases
absorption from the blood to the brain [3]: negligible
migration of glioblastoma cells (glioblastoma cells): significantly inhibited
growth of glioblastoma cells (glioblastoma cells; basal and leptin-stimulated): reduced basal and leptin-stimulated growth of glioblastoma cells in a dose-dependent manner

insulin: intranasal insulin (20 and 40 IU)
cognition on Alzheimer Disease's Assessment Scale-cognitive subscale ([4]; 20 and 40 IU, compared with placebo): less decline in cognition
recall of episodic memories ([4]; 20 or 40 IU for 4 months, relative to placebo): improved recall of episodic memories
brain glucose uptake and utilization ([4]; over the 4-month period, compared with placebo): reduced decline in brain glucose uptake and utilization
